Results: US5416118A, “Bicyclic amides as inhibitors of acyl-coenzyme A: cholesterol acyl transferase” (Schering Corporation, priority 1993, dated 1995)

How the values were obtained:
cholesteryl esters = test: In Vivo Assay of Hypolipidemic Agents Using the Hyperlipidemic Hamster; settings: Mesocricetus auratus, po, 168 h, oral gavage once daily, 7 days, versus control, read-out: % Reduction in cholesteryl esters; for change in vivo at 50 mg/kg: 50 mpk; for change in vivo at 100 mg/kg: 100 mpk; for change in vivo at 25 mg/kg: 25 mpk
Procedure: In Vivo Assay of Hypolipidemic Agents Using the Hyperlipidemic Hamster
Hamsters are separated into groups of six and given a control cholesterol diet (Pudna Chow #5001 containing 0.5% cholesterol) for seven days. Diet consumption is monitored to determine dietary cholesterol exposure in the face of test compounds. The animals are dosed with the test compound once daily beginning with the initiation of diet. Dosing is by oral gavage of 0.2 mL of corn oil alone (control group) or solution (or suspension) of test compound in corn oil. All animals moribund or in poor physical condition are euthanized. After seven days, the animals are anesthetized by […] of ketamine and sacrificed by decapitation. Blood is collected into vacutainer tubes containing EDTA for plasma lipid analysis and the liver excised for tissue lipid analysis. Data is reported as percent reduction of lipid versus control.
(§1) Using the assay methods described above, the compounds of Examples 1-9 were tested for in vitro ACAT inhibitory activity and for the ability to lower the level of cholesteryl esters in vivo.

ACAT = ACAT Assay (in vitro); format: biochemical; settings: dose = 10 μM; rat liver microsomes
Procedure: This assay measures the activity of ACAT by measuring the ACAT-mediated transfer of tritiated oleic acid from acyl-CoA to cholesterol to give labelled cholesterol oleate. Rat liver microsomes are used as the source of ACAT. Assays are performed in round bottom microtiterplates using a total incubation volume of 50 μL. Each incubation well receives 10 μL assay buffer (0.5M KHPO4, 10 μM dithiothreitol, pH 7.4), 7.5 μL of 40 mg/mL BSA (Bovine Serum Albumin) and 12.5 μg of microsomal protein. The test compound (in sufficient amount to bring the final concentration to from 0.1 to 25 μM), reference compound, or vehicle control is added and the final volume brought to 47 μL. The microtiterplate is then floated on the surface of a 37° C. water bath for fifteen minutes. Incubations are started by the addition of 3 μL ^3 H-acyl CoA (1 μCi/well, final concentration of 10 μM acyl CoA). The plate is then returned to the water bath for 15 minutes. The incubations are then terminated by application of 15 μL from each incubation to individual lanes on a thin layer plate (Silica Gel GF 20×20 cm). Standards are applied to several lanes so that the cholesterol ester band can be identified. After drying, the plates are eluted with 90:10:1 petroleum ether:ether:HOAc. The standards are visualized via iodine vapor, and the regions corresponding to cholesterol ester are scraped into 7 mL scintillation vials. 4 mL of scintillant are added to each vial, and the radioactivity quantified. Background count is determined by the boiled controls. Full activity is determined by activity in the presence of vehicle. The percent inhibition is calculated by subtracting the background from both control and test samples, and the test value is calculated as a percentage of the control. For IC50 determinations, the inhibition is plotted against drug doses on a log scale and the concentration at which 50% inhibition is obtained is determined.
as §1

Work on `COc1ccc([C@@H]2CCc3ccccc3[C@@H]2NC(=O)C(c2ccccc2)c2ccccc2)cc1` (relative stereo) [Example 1, cis-N-[-2-(4'-methoxyphenyl)-1,2,3,4-tetrahydronaphthalen-1-yl]-α-phenylbenzeneacetamide] yielded a change in vivo at 50 mg/kg (cholesteryl esters) of 0%.
`COc1ccccc1[C@H]1CCc2ccccc2[C@@H]1NC(=O)C(c1ccccc1)c1ccccc1` (relative stereo) [Example 1B] showed a change in vivo at 50 mg/kg (cholesteryl esters) of 21%.
Molecule `COc1cccc([C@H]2CCc3ccccc3[C@@H]2NC(=O)C(c2ccccc2)c2ccccc2)c1` (relative stereo) [Example 1D] has a change in vivo at 50 mg/kg (cholesteryl esters) of 0%.
In the case of `O=C(N[C@H]1c2ccccc2OC[C@H]1c1ccccc1)C(c1ccccc1)c1ccccc1` (relative stereo) [Example 1E], the “ACAT % Inhibition” value (ACAT) is reported as 40% and the change in vivo at 50 mg/kg (cholesteryl esters) is reported as 0%.
In the case of `CCCCCCCCCC(C)(C)C(=O)N[C@H]1c2ccccc2CC[C@@H]1c1ccc(OC)cc1` (relative stereo) [Example 1F], the “ACAT % Inhibition” value (ACAT) is reported as 36% and the change in vivo at 50 mg/kg (cholesteryl esters) is reported as 0%.
Work on `COc1ccc([C@H]2CCc3ccccc3[C@@H]2NC(=O)C(c2ccccc2)c2ccccc2)cc1` (relative stereo) [Example 1G] yielded a change in vivo at 50 mg/kg (cholesteryl esters) of 0%.
With `COc1ccc([C@@H]2CCCc3ccccc3[C@@H]2NC(=O)C(c2ccccc2)c2ccccc2)cc1` (relative stereo) [Example 1H] the “ACAT % Inhibition” value (ACAT) was 84% and the change in vivo at 50 mg/kg (cholesteryl esters) was 0%.
`COc1ccc([C@H]2CCCc3ccccc3[C@@H]2NC(=O)C(c2ccccc2)c2ccccc2)cc1` (relative stereo) [Example 1I] was tested, and the “ACAT % Inhibition” value (ACAT) was 63%.
`O=C(N[C@H]1c2ccccc2CC[C@@H]1c1ccncc1)C(c1ccccc1)c1ccccc1` (relative stereo) [Example 1J] was tested, and the change in vivo at 50 mg/kg (cholesteryl esters) was -39%.
For `O=C(N[C@H]1c2ccccc2OC[C@@H]1c1ccccc1)C(c1ccccc1)c1ccccc1` (relative stereo) [Example 1M], the “ACAT % Inhibition” value (ACAT) was 85% and the change in vivo at 50 mg/kg (cholesteryl esters) was 0%.
With `COc1ccc([C@H]2CCc3ccc(OC)cc3[C@@H]2NC(=O)C(c2ccccc2)c2ccccc2)cc1` (relative stereo) [Example 1R] the change in vivo at 50 mg/kg (cholesteryl esters) was 0%.
In the case of `COc1ccc([C@@H]2Cc3ccccc3[C@@H]2NC(=O)C(c2ccccc2)c2ccccc2)cc1` (relative stereo) [Example 2, cis-N-[2-(4'-methoxyphenyl)indanyl]-α-phenylbenzeneacetamide], the “ACAT % Inhibition” value (ACAT) is reported as 96% and the change in vivo at 50 mg/kg (cholesteryl esters) is reported as -17%.
In the case of `COc1cccc([C@@H]2Cc3ccccc3[C@@H]2NC(=O)C(c2ccccc2)c2ccccc2)c1` (relative stereo) [Example 2A], the “ACAT % Inhibition” value (ACAT) is reported as 99% and the change in vivo at 50 mg/kg (cholesteryl esters) is reported as 0%.
`COc1cccc([C@H]2Cc3ccccc3[C@@H]2NC(=O)C(c2ccccc2)c2ccccc2)c1` (relative stereo) [Example 2B] was tested, and the “ACAT % Inhibition” value (ACAT) was 94%.
`O=C(N[C@H]1c2ccccc2C[C@H]1c1cccc([N+](=O)[O-])c1)C(c1ccccc1)c1ccccc1` (relative stereo) [Example 2C] was tested, and the “ACAT % Inhibition” value (ACAT) was 99% and the change in vivo at 50 mg/kg (cholesteryl esters) was 0%.
For `O=C(N[C@H]1c2ccccc2C[C@@H]1c1cccc([N+](=O)[O-])c1)C(c1ccccc1)c1ccccc1` (relative stereo) [Example 2D], the “ACAT % Inhibition” value (ACAT) was 90%.
`COc1ccc([C@H]2Cc3ccccc3[C@@H]2NC(=O)C(c2ccccc2)c2ccccc2)cc1` (relative stereo) [Example 2F] was tested, and the “ACAT % Inhibition” value (ACAT) was 19% and the change in vivo at 50 mg/kg (cholesteryl esters) was 0%.
With `CCCCCCCC/C=C\CCCCCCCC(=O)N[C@H]1c2ccccc2CC[C@H]1c1ccc(OC)cc1` (relative stereo) [Example 2G] the “ACAT % Inhibition” value (ACAT) was 73% and the change in vivo at 100 mg/kg (cholesteryl esters) was 0%.
`CCCCCCCC/C=C\CCCCCCCC(=O)N[C@H]1c2ccccc2CC[C@@H]1c1ccc(OC)cc1` (relative stereo) [Example 2H] was tested, and the “ACAT % Inhibition” value (ACAT) was 81% and the change in vivo at 100 mg/kg (cholesteryl esters) was 0%.
In the case of `O=C(N[C@H]1c2ccccc2C[C@H]1c1ccc([N+](=O)[O-])cc1)C(c1ccccc1)c1ccccc1` (relative stereo) [Example 2I], the “ACAT % Inhibition” value (ACAT) is reported as 51%.
For `O=C(N[C@H]1c2ccccc2C[C@@H]1c1ccc([N+](=O)[O-])cc1)C(c1ccccc1)c1ccccc1` (relative stereo) [Example 2J], the “ACAT % Inhibition” value (ACAT) was -12%.
For `COc1ccc2c(c1)C[C@H](c1ccccc1)[C@H]2NC(=O)C(c1ccccc1)c1ccccc1` (relative stereo) [Example 2K], the “ACAT % Inhibition” value (ACAT) was 90% and the change in vivo at 25 mg/kg (cholesteryl esters) was 17%.
In the case of `CCCCCCCC/C=C\CCCCCCCC(=O)N[C@H]1c2ccccc2CC[C@H]1c1ccccc1` (relative stereo) [Example 2L], the “ACAT % Inhibition” value (ACAT) is reported as 66%.
For `CCCCCCCC/C=C\CCCCCCCC(=O)N[C@H]1c2ccccc2CC[C@@H]1c1ccccc1` (relative stereo) [Example 2M], the “ACAT % Inhibition” value (ACAT) was 99% and the change in vivo at 100 mg/kg (cholesteryl esters) was 0%.
In the case of `CCCCCCCC/C=C\CCCCCCCC(=O)N[C@H]1c2ccccc2OC[C@@H]1c1ccccc1` (relative stereo) [Example 2O], the “ACAT % Inhibition” value (ACAT) is reported as 87%.
`Nc1ccc([C@H]2CCc3ccccc3[C@@H]2NC(=O)C(c2ccccc2)c2ccccc2)cc1` (relative stereo) [Example 2P] was tested, and the change in vivo at 25 mg/kg (cholesteryl esters) was -15%.
For `COc1ccc2c(c1)[C@H](NC(=O)C(c1ccccc1)c1ccccc1)[C@H](c1ccccc1)C2` (relative stereo) [Example 2Q], the “ACAT % Inhibition” value (ACAT) was 16%.
`COc1ccc2c(c1)[C@H](NC(=O)C(c1ccccc1)c1ccccc1)[C@@H](c1ccccc1)C2` (relative stereo) [Example 2T] was tested, and the “ACAT % Inhibition” value (ACAT) was 15%.
In the case of `O=C(N[C@@H]1c2ccccc2CC[C@H]1c1ccccc1O)C(c1ccccc1)c1ccccc1` (relative stereo) [Example 3A], the change in vivo at 50 mg/kg (cholesteryl esters) is reported as 0%.
`O=C(N[C@@H]1c2c(O)cccc2CC[C@H]1c1ccccc1)C(c1ccccc1)c1ccccc1` (relative stereo) [Example 3CC] showed a change in vivo at 50 mg/kg (cholesteryl esters) of -20%.
With `O=C(N[C@@H]1c2ccccc2CCC[C@H]1c1ccc(O)cc1)C(c1ccccc1)c1ccccc1` (relative stereo) [Example 3J] the change in vivo at 50 mg/kg (cholesteryl esters) was -61%.
In the case of `O=C(N[C@@H]1c2ccc(O)cc2C[C@H]1c1ccccc1)C(c1ccccc1)c1ccccc1` (relative stereo) [Example 3L], the “ACAT % Inhibition” value (ACAT) is reported as 93%.
In the case of `O=C(N[C@@H]1c2ccccc2CCC[C@@H]1c1ccc(O)cc1)C(c1ccccc1)c1ccccc1` (relative stereo) [Example 3R], the change in vivo at 50 mg/kg (cholesteryl esters) is reported as 0%.
Work on `O=C(N[C@@H]1c2cccc(O)c2CC[C@H]1c1ccccc1)C(c1ccccc1)c1ccccc1` (relative stereo) [Example 3S] yielded a change in vivo at 50 mg/kg (cholesteryl esters) of 0%.
`O=C(N[C@@H]1c2cccc(O)c2CC[C@@H]1c1ccccc1)C(c1ccccc1)c1ccccc1` (relative stereo) [Example 3T] was tested, and the change in vivo at 50 mg/kg (cholesteryl esters) was 0%.
For `O=C(N[C@@H]1c2cc(O)ccc2CC[C@H]1c1ccc(O)cc1)C(c1ccccc1)c1ccccc1` (relative stereo) [Example 3U], the change in vivo at 10 mg/kg (cholesteryl esters; 10 mpk) was -60%, the change in vivo at 30 mg/kg (cholesteryl esters; 30 mpk) was -86% and the change in vivo at 50 mg/kg (cholesteryl esters) was -97%.
Work on `O=C(N[C@@H]1c2cc(O)ccc2CC[C@@H]1c1ccc(O)cc1)C(c1ccccc1)c1ccccc1` (relative stereo) [Example 3V] yielded a change in vivo at 50 mg/kg (cholesteryl esters) of 0%.
For `O=C(N[C@@H]1c2c(O)cccc2C[C@@H]1c1ccccc1)C(c1ccccc1)c1ccccc1` (relative stereo) [Example 3X], the “ACAT % Inhibition” value (ACAT) was 97%.
With `Nc1ccc([C@@H]2Cc3ccccc3[C@H]2NC(=O)C(c2ccccc2)c2ccccc2)cc1` (relative stereo) [Example 5, trans-N-[2-(4'-aminophenyl)indanyl]-α-phenylbenzeneacetamide] the “ACAT % Inhibition” value (ACAT) was 94%.
With `O=C(N[C@@H]1c2ccccc2C[C@@H]1c1ccc(O)cc1)C(c1ccccc1)c1ccccc1` (single isomer, unassigned) [Example 3BB] the “ACAT % Inhibition” value (ACAT) was < 0%.
With `O=C(N[C@@H]1c2cc(O)ccc2CC[C@H]1c1ccccc1)C(c1ccccc1)c1ccccc1` (single isomer, unassigned) [Example 3Y] the “ACAT % Inhibition” value (ACAT) was 83%.
With `O=C(N[C@@H]1c2cc(O)ccc2CC[C@H]1c1ccccc1)C(c1ccccc1)c1ccccc1` (single isomer, unassigned) [Example 3Z] the “ACAT % Inhibition” value (ACAT) was 92%.
